Measurements: ChEMBL document CHEMBL1156027, “Identification of methysticin as a potent and non-toxic NF-kappaB inhibitor from kava, potentially responsible for kava's chemopreventive activity” (Bioorg Med Chem Lett, 2009)
Converted amounts (≈) assume the structure as drawn. The source made the active and inactive calls. The rule behind the calls is not given here.

How the values were obtained:
[1] = Inhibition of TNF-alpha-induced NF-kappaB expressed in human A549 cells treated 1 hr after TNFalpha challenge measured after 6 hrs by luciferase reporter gene assay; format: cell-based
[2] = Hepatotoxicity against mouse Hepa-1c1c7 cells after 48 hrs by celltiter blue assay; format: toxicity, cell-based
A549 [3] = experiment: Inhibition of NF-kappaB expressed in human A549 cells assessed as suppression of TNF-alpha-induced p65 level at 25 uM after 7 hrs by Western blotting; format: cell-based
A549 [4] = experiment: Inhibition of NF-kappaB expressed in human A549 cells assessed as prevention of TNF-alpha-induced IkappaBalpha degradation level at 25 uM after 7 hrs by Western blotting; format: cell-based
A549 [5] = experiment: Inhibition of NF-kappaB expressed in human A549 cells assessed as suppression of TNF-alpha-induced COX2 level at 25 uM after 7 hrs by Western blotting; format: cell-based
HL-60 = experiment: Toxicity against human HL60 cells after 48 hrs by celltiter blue assay; format: cell-based; conditions: hl-60, 48 h
CCRF-CEM = experiment: Toxicity against human CCRF-CEM cells after 48 hrs by celltiter blue assay; format: cell-based
A549 [6] = experiment: […] against human A549 cells after 48 hrs by celltiter blue assay; format: toxicity, cell-based; conditions: a549, 48 h
A549 [7] = experiment: Inhibition of NF-kappaB expressed in human A549 cells assessed as suppression of TNF-alpha-induced IKKalpha level at 25 uM after 7 hrs by Western blotting; format: cell-based

SMILES	IC50 [1] [µg/mL]	IC50 at 48 h [2] [µg/mL]	other results
COc1cc(O)c(C(=O)/C=C/c2ccc(O)cc2)c(OC)c1 [FLAVOKAWAIN C]	8.1 (≈ 27 µM)	9.8 (≈ 32.6 µM)	–
COc1cc(/C=C/c2ccccc2)oc(=O)c1 [DESMETHOXYYANGONIN]	33 (≈ 145 µM)	173 (≈ 758 µM)	–
COC1=CC(=O)O[C@@H](CCc2ccc3c(c2)OCO3)C1 [DIHYDROMETHYSTICIN]	20 (≈ 72.4 µM)	313 (≈ 1130 µM)	–
COC1=CC(=O)O[C@@H](CCc2ccccc2)C1 [DIHYDROKAWAIN]	60 (≈ 258 µM)	175 (≈ 753 µM)	–
COC1=CC(=O)O[C@@H](/C=C/c2ccccc2)C1 [KAVAIN]	32 (≈ 139 µM)	166 (≈ 721 µM)	–
COc1cc(O)c(C(=O)/C=C/c2ccccc2)c(OC)c1 [FLAVOKAWAIN B]	8 (≈ 28.1 µM)	6.6 (≈ 23.2 µM)	–
COc1ccc(/C=C/C(=O)c2c(O)cc(OC)cc2OC)cc1 [FLAVOKAWAIN A]	11.6 (≈ 36.9 µM)	13.8 (≈ 43.9 µM)	–
COC1=CC(=O)O[C@@H](/C=C/c2ccc3c(c2)OCO3)C1 [METHYSTICIN]	0.19 (≈ 0.693 µM)	392 (≈ 1430 µM)	inhibition (A549 [3]): Active; inhibition (A549 [4]): Active; inhibition (A549 [5]): Active; Activity (HL-60): Non-toxic; Activity (CCRF-CEM): Non-toxic; Activity (A549 [6]): Non-toxic; inhibition (A549 [7]): Active
